Results as given in patent US8067411B2, “Compounds” (AstraZeneca AB, priority 2006, dated 2011).

Target: T1, Recombinant human TLR7 (Homo sapiens, UniProt Q9NYK1)
T1 construct: expressed in transfected cells; host or cells: HEK293 cell line stably expressing the pNiFty2-SEAP reporter plasmid; TLR7 in pUNO vector, blasticidin selection
T1 sequence (Q9NYK1 27-1049): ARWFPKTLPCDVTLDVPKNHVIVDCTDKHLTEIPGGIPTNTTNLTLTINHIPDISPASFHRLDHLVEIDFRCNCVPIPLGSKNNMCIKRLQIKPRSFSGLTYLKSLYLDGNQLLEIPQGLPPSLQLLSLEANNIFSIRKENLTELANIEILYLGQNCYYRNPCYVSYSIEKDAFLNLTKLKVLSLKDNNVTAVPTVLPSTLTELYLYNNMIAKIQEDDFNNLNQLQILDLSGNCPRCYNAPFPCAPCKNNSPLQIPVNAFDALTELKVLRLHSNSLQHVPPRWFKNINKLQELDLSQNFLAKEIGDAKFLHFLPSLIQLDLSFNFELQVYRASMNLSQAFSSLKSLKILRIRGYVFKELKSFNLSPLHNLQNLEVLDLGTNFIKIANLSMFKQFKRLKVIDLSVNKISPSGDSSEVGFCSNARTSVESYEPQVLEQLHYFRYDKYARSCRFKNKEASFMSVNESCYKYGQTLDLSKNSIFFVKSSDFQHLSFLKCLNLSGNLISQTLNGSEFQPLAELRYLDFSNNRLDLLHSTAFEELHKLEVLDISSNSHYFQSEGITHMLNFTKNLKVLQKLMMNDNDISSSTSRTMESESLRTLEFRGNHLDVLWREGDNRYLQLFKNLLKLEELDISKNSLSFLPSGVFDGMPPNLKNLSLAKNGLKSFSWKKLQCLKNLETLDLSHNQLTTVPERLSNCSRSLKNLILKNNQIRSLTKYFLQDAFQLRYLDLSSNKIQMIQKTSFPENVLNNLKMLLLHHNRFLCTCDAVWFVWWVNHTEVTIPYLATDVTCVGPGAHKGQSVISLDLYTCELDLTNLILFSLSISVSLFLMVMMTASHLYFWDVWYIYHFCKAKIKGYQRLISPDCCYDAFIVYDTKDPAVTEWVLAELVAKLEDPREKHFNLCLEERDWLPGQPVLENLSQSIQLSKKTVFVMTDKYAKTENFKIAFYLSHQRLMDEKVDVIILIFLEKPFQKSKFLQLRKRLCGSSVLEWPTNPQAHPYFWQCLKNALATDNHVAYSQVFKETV
Assay: Human TLR7 assay (SEAP reporter in HEK293 cells)
Format: cell-based
Settings: log of the minimal effective concentration of compound to induce SEAP release; HEK293 pNiFty2-SEAP reporter cell line, overnight incubation at 37° C., 0.1% (v/v) DMSO
Text: Recombinant human TLR7 was stably expressed in a HEK293 cell line already stably expressing the pNiFty2-SEAP reporter plasmid; integration of the reporter gene was maintained by selection with the antibiotic zeocin. The most common variant sequence of human TLR7 (represented by the EMBL sequence AF240467) was cloned into the mammalian cell expression vector pUNO and transfected into this reporter cell-line. Transfectants with stable expression were selected using the antibiotic blasticidin. In this reporter cell-line, expression of secreted alkaline phosphatase (SEAP) is controlled by an NFkB/ELAM-1 composite promoter comprising five NFkB sites combined with the proximal ELAM-1 promoter. TLR signaling leads to the translocation of NFkB and activation of the promoter results in expression of the SEAP gene. TLR7-specific activation was assessed by determining the level of SEAP produced following overnight incubation of the cells at 37° C. with the standard compound in the presence of 0.1% (v/v) dimethylsulfoxide (DMSO). Concentration dependent induction of SEAP production by compounds was expressed as the log of the minimal effective concentration of compound to induce SEAP release (pMEC).

| SMILES | pMEC |
| --- | --- |
| CCCCOc1nc(N)c2[nH]c(=O)n(CCCN(CCCN3CCOCC3)Cc3ccc(-n4cncn4)cc3)c2n1 [Example 16, 6-Amino-2-butoxy-9-(3-{(3-morpholin-4-ylpropyl)[4-(1H-1,2,4-triazol-1-yl)benzyl]amino}propyl)-7,9-dihydro-8H-purin-8-one] | 7.4 |
| CCCCOc1nc(N)c2[nH]c(=O)n(CCCN(CCCN3CCOCC3)Cc3cc(OC)cc(OC)c3)c2n1 [Example 12, 6-Amino-2-butoxy-9-{3-[(3,5-dimethoxybenzyl)(3-morpholin-4-ylpropyl)amino]propyl}-7,9-dihydro-8H-purin-8-one] | >7.7 |
| CCCCOc1nc(N)c2[nH]c(=O)n(CCCN(CCCN3CCOCC3)Cc3ccc(SC)cc3)c2n1 [Example 8, 6-Amino-2-butoxy-9-{3-[[4-(methylthio)benzyl] (3-morpholin-4-ylpropyl)amino]propyl}-7,9-dihydro-8H-purin-8-one] | 7.2 |
